# Assay results reported in patent US7745402B2, “Method of treating pancreatitis” (Lundbeck Inc., priority 2005, dated 2010).
# Legend:
# [1] = test system: caerulein-induced pancreatitis; assay: Caerulein-induced pancreatitis and its pulmonary complications after hemin pretreatment; type: in vivo, Balb/c mice; settings: hemin 3× every other day, then caerulein hourly 7×; 12 h
# Procedure: (A,B) Mice were injected intraperitoneally with hemin (H) or vehicle (V; 7 mice/group) every other day (3×; arrows) followed by injection with either saline (Sal) or caerulein (Cae) hourly (7×; arrows) and then harvesting of the pancreata and lungs at 12 h after first Sal or Cae injection. Sera were collected for amylase/lipase measurement. (C-E) Pancreatic and lung tissues (from panels A,B) were used to determine trypsin (pmol/mg protein) and myeloperoxidase (MPO; ng/mg wet tissue) enzyme activities and to assess extent of tissue injury. Data are presented as mean±SD. A representative hematoxylin and eosin staining of lung is shown (scale bar=50 μM).
# Mice and pancreatitis models. Experiments and animal care were performed according to approved institutional guidelines. […]
# Animal procedures. […] Immunofluorescence staining was performed as described (29) and images were analyzed using confocal microscopy. Total tissue lysates were prepared by homogenization in Laemmli sample buffer and analyzed by SDS-PAGE followed by transfer to membranes for blotting and protein visualization by enhanced chemiluminescence. Trypsin activity was determined using a fluorimetric assay and the substrate Boc-Gln-Ala-Arg-MCA (Peptides International Inc.; Louisville, Ky.), and comparison to a standard curve generated with purified trypsin as described. […]
# HO-1 = assay: Double-staining of pancreas for HO-1 and cell markers after hemin and CDD; type: in vivo, mice; settings: hemin pretreatment, 3 days of CDD
# Source text: Pancreata of mice pretreated with hemin followed by 3 days of CDD feeding were isolated, sectioned, then double-stained using antibodies to HO-1 (a, d and g) and keratin polypeptide 8 (epithelial marker, b), vimentin (mesenchymal marker, e) or MJ7/18 (endothelial marker, h). Merging of the indicated images is shown in the right panels. Scale bar in panel i=20 μm. HO-1 staining of pancreas from mice treated with vehicle alone (without CDD) afforded background staining (inset of panel a).
# Animal procedures. Mice were euthanized by CO2 inhalation then pancreata and lungs were rapidly removed, divided into 3-4 pieces, and blood was collected by intracardiac puncture. […] Immunofluorescence staining was performed as described (29) and images were analyzed using confocal microscopy. Total tissue lysates were prepared by homogenization in Laemmli sample buffer and analyzed by SDS-PAGE followed by transfer to membranes for blotting and protein visualization by enhanced chemiluminescence. Trypsin activity was determined using a fluorimetric assay and the substrate Boc-Gln-Ala-Arg-MCA (Peptides International Inc.; Louisville, Ky.), and comparison to a standard curve generated with purified trypsin as described. […] Lung injury after caerulein administration was assessed as previously described, based on neutrophilic infiltration, pulmonary edema, alveolar distension and collapse. […]
substance,measurement,setting,value
Hemin,"lung histology (hemorrhage, alveolar collapse)",[1],marked hemorrhage and alveolar collapse in vehicle (a) compared to hemin (b) pretreated mice
same,cell type of pancreatic HO-1 induction,HO-1,occurs in non-epithelial cells
